The subject of data set [1] is herpes simplex virus. In words: Antiviral activity against herpes simplex virus in FL cells (multinucleated giant cell formation). The class given is cell-based. Particulars: FL cell monolayers, sample added 1 h after virus, 36° C., 5% carbon dioxide, 24 hours incubation. As to the method:
Antiviral activity of 1,2,3,4,6-pentagalloylglucose against herpes simplex virus was assayed. Procedure:
Monolayers were prepared from dispersed FL cells in Petri dishes of diameter 35 mm, 24 hours prior to the assay. On carrying out the assay, the medium in each dish was poured off and each dish received 1 ml of medium containing herpes simplex virus. The dishes were incubated at 36° C. in a humidified atmosphere containing 5% of gaseous carbon dioxide. After an hour, each dish further received 1 ml of medium and 20-200 μl of an aqueous 1,2,3,4,6-pentagalloylglucose solution. Incubation was continued for 24 hours and then all the dishes were inspected for multinucleated giant cell. Antiviral activity was defined as the minimum concentration of sample at which no multinucleated giant cell appeared.

The nature of data set [2]: Acute toxicity in rats. The class given is in vivo. Particulars: in a usual manner. As to the method:
Acute toxicity of 1,2,3,4 6-pentagalloylglucose was assayed using rats in a usual manner.

The source of these data is patent US4465673A, “Pentagalloylglucose antiviral composition” (Tanaka; Yasuo, priority 1983, dated 1984).

With “1,2,3,4,6-pentagalloylglucose [Product of Example 1]”, the “Antiviral activity (minimum concentration of sample at which no multinucleated giant cell appeared)” value in data set [1] is 26 µg/mL.

In the case of `O=C(OCC1OC(OC(=O)c2cc(O)c(O)c(O)c2)C(OC(=O)c2cc(O)c(O)c(O)c2)C(OC(=O)c2cc(O)c(O)c(O)c2)C1OC(=O)c1cc(O)c(O)c(O)c1)c1cc(O)c(O)c(O)c1` (stereo not drawn) [1,2,3,4,6-pentagalloylglucose], the minimal effective concentration in data set [1] (read-out: Antiviral activity (minimum concentration of sample at which no multinucleated giant cell appeared)) came to 25 µg/mL. The Acute toxicity entry in data set [2] is listed as “extremely low”.
